What all share (assay type): cell-based
The test system of data set [1] is normal human gingival epithelioid cell line SG. Description: Toxicity to normal human gingival epithelioid SG cells, Trypan blue exclusion. Conditions: 20 μg/ml, 24 h. Here is the method:
(§1) Human normal human gingival epithelioid cell line SG cells were incubated for 24 h with ginsenoside M1 (5˜20 μg/ml), ginsenoside Rh2 (5˜20 μg/ml) or vehicle (0.1% DMSO). The live cell numbers were counted by Trypan blue exclusion method. The data were expressed as mean±SD; n=3. ** and *** indicate a significant difference at the level of p<0.01 and p<0.001, respectively, compared to vehicle-control cells. (One-way ANOVA with Dunnett's multiple comparisons test).
as §1, with “Plate 5×10^5” for “Human”, “SG per 6-cm dish in 2 ml of culture medium and were grown overnight at 37° C. in a 5% CO2 incubator. The” for “SG”, “vehicle. Each group contains a final DMSO concentration of 0.1%. Thereafter, the” for “vehicle (0.1% DMSO). The live”, “method. […]” for “method.”

The test system of data set [2] is human oral cancer cells SAS. Description: Viability of human oral cancer SAS cells, Trypan blue exclusion. Conditions: 5˜20 μg/ml, 24 h. The method, then:
(§2) Human oral cancer cell line SAS cells (FIG. 1A) or OECM-1 cells (FIG. 1B) were incubated for 24 h with ginsenoside M1 (5˜20 μg/ml), ginsenoside Rh2 (5˜20 μg/ml) or vehicle (0.1% DMSO). The live cell numbers were counted by Trypan blue exclusion method. The data were expressed as mean±SD; n=3. *, ** and *** indicate a significant difference at the level of p<0.05, p<0.01 and p<0.001, respectively, compared to vehicle-control cells. (One-way ANOVA with Dunnett's multiple comparisons test).
(§3) Plate 5×10^5 human oral cancer cells SAS per 6-cm dish in 2 ml of culture medium and were grown overnight at 37° C. in a 5% CO2 incubator. The cells were incubated for 24 h with ginsenoside M1 (5˜20 μg/ml), ginsenoside Rh2 (5˜20 μg/ml) or vehicle. Each group contains a final DMSO concentration of 0.1%. Thereafter, the cell numbers were counted by Trypan blue exclusion method. […] The data were expressed as mean±SD; n=3. *, ** and *** indicate a significant difference at the level of p<0.05, p<0.01 and p<0.001, respectively, compared to vehicle-control cells. (One-way ANOVA with Dunnett's multiple comparisons test).

The subject of data set [3] is human oral cancer OECM-1 cells. Description: Viability of human oral cancer OECM-1 cells, Trypan blue exclusion. Conditions: 5˜20 μg/ml, 24 h. Here is the method: as §2, §3
Data set [4] deals with human oral cancer cells OECM-1. Description: Apoptotic DNA breaks, TUNEL assay by flow cytometry. Particulars: 50 μM, 24 h. The method, then: (§4) Human oral cancer cell line OECM-1 cells were incubated for 24 h with ginsenoside M1 (10˜20 μg/ml), 50 μM cistaplatin (CDDP) or vehicle (0.1% DMSO). (FIG. 3A) The apoptotic DNA breaks was assayed by terminal deoxynucleotidyl transferase dUTP nick end labeling (TUNEL) assay using flow cytometry. (FIG. 3B) The cell cycle distribution was determined by PI staining using flow cytometry. (FIG. 3C) The apoptosis level was measured by PI/Annexin V double staining assay using flow cytometry. (FIG. 3D) The activation levels of caspase-9 and caspase-3 were measured by detecting the degradation of pro-caspase-9 and pro-caspase-3 using Western blotting. […] (One-way ANOVA with Dunnett's multiple comparisons test).
(§5) To gain further insight into the mode of action of ginsenoside M1, three assays targeting hallmarks of apoptosis, namely (1) the apoptotic DNA breaks assayed by terminal deoxynucleotidyl transferase dUTP nick end labeling (TUNEL) assay, (2) the cell cycle assayed by flow cytometry after propidium iodide (PI)-staining nuclei, (3) the PI/Annexin V double staining assay, and (4) caspase activation were performed. Plate 1×10^6 human oral cancer cells OECM-1 per 6-cm dish in 2 ml of culture medium and were grown overnight at 37° C. in a 5% CO2 incubator. The cells were incubated for 24 h with ginsenoside M1 (10˜20 μg/ml), 50 μM cistaplatin (CDDP) or vehicle. Each group contains a final DMSO concentration of 0.1%. Thereafter, three assays were performed. […] The cells in sub-G1 phase increased after treatment with ginsenoside M1 and CDDP. (FIG. 3B). […] The data were expressed as mean±SD; n=3. ** and *** indicate a significant difference at the level of p<0.01 and p<0.001, respectively, compared to vehicle-control cells. (One-way ANOVA with Dunnett's multiple comparisons test).

Data set [5] deals with human oral cancer cells OECM-1. Description: PI/Annexin V double staining assay by flow cytometry. Particulars: 50 μM, 24 h. The method, then: as §4, §5
(In general: In flow cytometry, cells or beads pass a laser one at a time.)

In data set [6] the test system is human oral cancer cells OECM-1. Description: Cell cycle distribution, PI staining by flow cytometry. Particulars: 50 μM, 24 h. The method, then: as §4, §5

The text below walks through data of patent US11524021B2, “Use of ginsenoside M1 for manufacturing medicament for treating oral cancer” (priority 2018, dated 2022).

With `CC(C)=CCC[C@](C)(O)[C@H]1CC[C@]2(C)[C@@H]1[C@H](O)C[C@@H]1[C@@]3(C)CC[C@H](O[C@@H]4O[C@H](CO)[C@@H](O)[C@H](O)[C@H]4O)C(C)(C)[C@@H]3CC[C@]12C` [ginsenoside Rh2, reference compound], the “toxicity to SG cells” value in data set [1] is recorded as “completely killed the SG cells”. Also, the “cell numbers of human oral cancer SAS cells” value in data set [2] was “dose-dependently inhibited”. Besides, the “cell numbers of human oral cancer OECM-1 cells” value in data set [3] was “dose-dependently inhibited”.

Regarding `N.N.[Cl][Pt][Cl]` [CDDP, cistaplatin, reference compound], the “apoptotic DNA breaks in OECM-1 cells” value in data set [4] is “significantly induced”. In addition, the “percentage of OECM-1 cells with PI/Annexin V double positive staining” value in data set [5] is “significantly increased”. In addition, in data set [6], the “cells in sub-G1 phase” value is recorded as “increased”. Moreover, in data set [6] (vs control cells), the “cells in G1 phase” value is “increased”; the “percentage of cells in S and G2/M phase” value is listed as “decreasing”.
